Tests used:
[1] = system: root hairs of Arabidopsis thaliana; conditions: cited from earlier work
root hairs = conditions: cited from earlier work
[Ca^2+]cyt = dextran-conjugated calcium green as reporter; cited from earlier work
[2] = system: [Ca^2+]cyt in excised roots; conditions: cited from earlier work
[3] = system: ATMEKK1, ATMPK3, ATPK19, ERF2, ERF3, ERF4 and ACS6 genes; conditions: application of 500 μM; cited from earlier work
Arabidopsis leaves = conditions: applied into intercellular spaces of leaves; cited from earlier work
LOX2, ACS6, PAL1 = conditions: cited from earlier work
roots = conditions: in vivo; cited from earlier work
maize roots = conditions: concentrations that inhibited gravitropic growth; cited from earlier work
Arabidopsis roots = conditions: concentrations that inhibited gravitropic growth; cited from earlier work
Arabidopsis pollen [4] = conditions: cited from earlier work
Arabidopsis pollen [5] = assay: in vitro pollen germination (Arabidopsis); type: cell-based, Arabidopsis thaliana
Method: Effects of Extracellular ATPγS and AMPαS on Pollen Germination. Arabidopsis pollen was germinated in pollen germination media (PGM) containing from about zero to about 400 μM ATPγS or AMPαS. […] The method of collection included vortexing flowers in PGM creating a homogenous suspension of pollen from tens to hundreds of flowers. This method caused the release of a small amount of ATP, 2-5 μM into the PGM (data not shown).
The nitric oxide signaling pathway mediates the inhibition of Arabidopsis pollen germination by ATPγS. To examine the downstream effectors involved in the inhibition of Arabidopsis pollen germination by ATPγS, different agonists and antagonists of the known nitric oxide signaling pathway were examined. […] Some of the nitric oxide signaling pathway agonists are water soluble while others are DMSO soluble.
Strains and Growth Conditions. For the experiments related to the nitric oxide-ATP signaling relationship, all Arabidopsis thaliana plants were ecotype Wassilewskija (WS), and Medicago truncatula plants were strain A17. All of the plants were grown in Metro-Mix 200 soil at 24° C. with constant light. In vitro Pollen Germination. Arabidopsis flowers in stage 12-14 (Smyth et al., 1990) or Medicago truncatula flowers in stage F3 (Firnhaber et al., 2005) were collected and vortexed for 1 min in pollen germination media (PGM) (0.01% boric acid, 1 mM MgSO4, 1 mM CaCl2, 1 mM Ca(NO3)2, 5 mM HEPES, 18% Sucrose pH 7.0). The supernatant containing the pollen was collected by pipet, and up to three rounds of vortexing of the same pollen could be pooled together. The pollen suspended in PGM was then added in 10-12 μL drops to 400 μL PGM+1% agar that had been spread as a thin film across a microscope slide. The slides and pollen were then placed into humidity chambers, petri dishes with water saturated kimwipes, and allowed to germinate at 26° C. overnight. Pictures of the germinated pollen were taken with a digital camera attached to a brightfield microscope at 40×. The digital images were scored for the percent of pollen germinated using the AlphaEase software from Alpha Innotech. Pollen with tubes that were shorter than the diameter of the pollen grain were not counted as germinated or non-germinated. The chemicals: ATPγS, AMPαS, N2, 2-O-dibutyrylguanosine 3′:5′-cyclic monophospohate (Dib cGMP), Sildenafil citrate (Viagra™, Pfizer), and 2-(N,N-Diethylamino)-diazenolate 2-oxide (NONOate) were added to the pollen/PGM suspension prior to adding the drops to the PGM+1% agar. The chemicals 1H-[1,2,4]Oxadiazolo[4,3,-a]quinoxalin-1-one (ODQ), N-[4-[1-(3-Aminopropyl)-2-hydroxy-2-nitrosohydrazino]butyl]-1,3-propanediamine (SNAP), and 3-isobutyl-1-methylxanthine (IBMX) were diluted in DMSO and added to the pollen/PGM suspension to a final concentration of DMSO of 0.1%.
For successful pollen germination it was critical for the plants to be healthy and growing in slightly dry soil. To achieve this, the plants were briefly watered 1-2 days before the experiment. As Johnson-Brousseau and McCormick note in their paper (Johnson-Brousseau and McCormick 2004), a solid base is necessary for best in vitro germination of Arabidopsis pollen. The pollen would not germinate in liquid PGM if not overlaid on a solid PGM+1% agar base, and the vortexing and deposition of the pollen/PGM suspension needed to take place in less than 30 minutes or germination rates dropped considerably.

[6] = system: Medicago truncatula pollen; assay: in vitro pollen germination (Medicago); type: cell-based
Method: To determine if the affects of ATPγS on pollen germination was specific to Arabidopsis or a more generalized phenomenon, Medicago truncatula was also examined.
Strains and Growth Conditions. For the experiments related to the nitric oxide-ATP signaling relationship, all Arabidopsis thaliana plants were ecotype Wassilewskija (WS), and Medicago truncatula plants were strain A17. All of the plants were grown in Metro-Mix 200 soil at 24° C. with constant light. In vitro Pollen Germination. Arabidopsis flowers in stage 12-14 (Smyth et al., 1990) or Medicago truncatula flowers in stage F3 (Firnhaber et al., 2005) were collected and vortexed for 1 min in pollen germination media (PGM) (0.01% boric acid, 1 mM MgSO4, 1 mM CaCl2, 1 mM Ca(NO3)2, 5 mM HEPES, 18% Sucrose pH 7.0). The supernatant containing the pollen was collected by pipet, and up to three rounds of vortexing of the same pollen could be pooled together. The pollen suspended in PGM was then added in 10-12 μL drops to 400 μL PGM+1% agar that had been spread as a thin film across a microscope slide. […] The digital images were scored for the percent of pollen germinated using the AlphaEase software from Alpha Innotech. Pollen with tubes that were shorter than the diameter of the pollen grain were not counted as germinated or non-germinated. […]

Arabidopsis pollen tubes = assay: pollen tube elongation; type: cell-based, Arabidopsis thaliana; conditions: about 0 to about 250 μM added after tubes had begun to grow
Method: Arabidopsis pollen tube elongation is inhibited by ATPγS. As vesicles fuse to deliver membranes to the tip of elongating pollen tubes, ATP is likely to be released. So ATPγS and AMPαS were investigated for their ability to affect pollen tube elongation. After pollen tubes had begun to grow, from about 0 to about 250 μM ATPγS or AMPαS were added and the subsequent growth rate was determined.
Blocking the nitric oxide signaling pathway reverses the inhibition of Arabidopsis elongation by ATPγS. The inhibition of Arabidopsis pollen tube elongation was also mediated via the NO signaling pathway. Pollen tube growth rates were measured in 0.5% DMSO with and without 100 μM ATPγS.
Measurements of pollen tube elongation. Pollen was germinated as described above except 10 μL drops of pollen/PGM suspension were added to 60 μL of PGM+1% agar that had been deposited into a concavity slide. The pollen was allowed to germinate for 1-2 h, so that pollen tubes were clearly visible. Then 90 μL of PGM or PGM containing ATPγS, AMPαS, DMSO or ODQ was added and a photo was taken using a brightfield microscope at 40×. The coordinates of each photo were noted, so that the exact pollen tubes could be photographed 50-60 minutes later. Using Image J, the pollen tube lengths for individual pollen tubes were measured and a growth rate of μm/min was determined.

[7] = system: nitric oxide levels in elongating Arabidopsis pollen tubes; assay: nitric oxide in elongating pollen tubes, DAF-2D fluorescence; type: cell-based, Arabidopsis thaliana; conditions: 125 μM
Method: Increased extracellular ATPγS increases nitric oxide production in elongating pollen tubes. In addition to using agonists and antagonists to indirectly study the relationship of eATPγS and nitric oxide, direct measurements of increases in nitric oxide after application of ATPγS and AMPαS were examined. Pollen grains have a high level of auto-fluorescence and the nitric oxide levels in elongating Arabidopsis pollen tubes were determined using DAF-2D, a fluorescent marker for the presence of nitric oxide that was dissolved in DMSO. Elongating pollen tubes were treated with DAF-2D alone or with ATPγS or AMPαS.
Measurements of NO in growing pollen tubes treated with ATPγS or AMPαS. Pollen was germinated as described for the pollen elongation measurements. After 1-2 hours when pollen tubes were clearly visible, 90 μL of PGM containing 5 μM 4,5-diaminofluorescein diacetate (DAF-2D, Molecular Probes) with or without ATPγS or AMPαS was added. […] Using Image J, the average fluorescence for the pollen tubes on each slide and each time point were determined. Since background fluorescence for each slide varied, three areas where no pollen tubes were present were averaged and subtracted from the pollen tube averages for each slide. Pollen tubes with and without nucleotides were compared to each other at similar time points to determine if there was a difference in fluorescence.

[8] = system: [Ca^2+]cyt in Arabidopsis seedlings; conditions: Arabidopsis seedlings (Jeter et al., 2004); cited from earlier work
Δ[Ca^2+]cyt = conditions: co-application with OGA; cited from earlier work

Question: Which “induction of membrane depolarization” value ([1]; applied nucleotide or phosphate) does the source give for `Nc1ncnc2c1ncn2[C@@H]1O[C@H](COP(=O)(O)OP(=O)(O)OP(=O)(O)O)[C@@H](O)[C@H]1O` [ATP] here?
Answer: The value was “induced large depolarizations”.

Question: What about the EC50 ([1]; dose-response studies, read-out: half-maximal depolarization) of the same molecule?
Answer: Its EC50 is about 400 µM.

Question: What about the “increase in root hair growth” value (root hairs) of the same molecule?
Answer: The value was “not”.

Question: And the “change in [Ca2+]cyt” value ([Ca^2+]cyt)?
Answer: Its value is “no change”.

Question: And the “increase in [Ca2+]cyt” value ([2]; 300 nM ATP, excised roots, 10 mM CaCl2, in less than about 10 seconds)?
Answer: Its value is 2 fold.

Question: And the “[Ca2+]cyt after treatment” value ([2]; 1 μM ATP, from ca. 100 nM)?
Answer: The value was “over 400 nM”.

Question: And the “abundance of mRNAs (MAP kinases, ERF2, ERF3, ERF4, ACS6)” value [3]?
Answer: The value was “induced an increased abundance”.

Question: What about the “concentration sufficient to induce significant superoxide production” value (Arabidopsis leaves) of the same molecule?
Answer: Its value is 500 nM.

Question: And the “message abundance for PAL1” value (LOX2, ACS6, PAL1)?
Answer: Its value is “increased”.

Question: And the “expression of LOX2 and ACS6” value (LOX2, ACS6, PAL1; micromolar concentrations that induced superoxide production)?
Answer: The value was “up-regulated”.

Question: And the “concentration that could inhibit the straight growth of roots” value (roots)?
Answer: The value was 3 mM.

Question: And the auxin transport (maize roots)?
Answer: Its auxin transport is “inhibited auxin transport”.

Question: And the auxin transport (Arabidopsis roots)?
Answer: The auxin transport was “inhibited auxin transport”.

Question: What about the “concentration shown to affect pollen germination” value (Arabidopsis pollen [4]; Steinenbrunner et al., 2003) of the same molecule?
Answer: Its value is 1 to 2 mM.

Question: Which results are given for `Nc1ncnc2c1ncn2[C@@H]1O[C@H](COP(=O)(O)OP(=O)(O)OP(O)(O)=S)[C@@H](O)[C@H]1O` [ATPγS]?
Answer: inhibition of pollen germination (Arabidopsis pollen [5]; 50 μM, 0.1% DMSO): inhibits; inhibition of pollen germination (Arabidopsis pollen [5]; 50 μM, series with water-soluble agonists): not inhibitory; inhibition of pollen germination (Arabidopsis pollen [5]; 100 μM, 0.1% DMSO): does not inhibit; inhibition of pollen germination (Arabidopsis pollen [5]; 100 μM, series with water-soluble agonists): inhibitory; concentration from which the pollen germination rate significantly decreased (Arabidopsis pollen [5]; PGM with about zero to about 400 μM): about 100 μM; concentrations required for the responses of pollen (Arabidopsis pollen [5]; pollen germination and growth): 100 to 200 µM; concentration from which pollen germination rates decrease [6]: 200 µM; concentration that significantly inhibited pollen tube elongation (Arabidopsis pollen tubes): more than 150 μM; DAF-2D fluorescence [7]: significantly increased; concentrations needed to induce increases in [Ca2+]cyt [8]: 100 to 200 µM; effect on Δ[Ca2+]cyt together with OGA (Δ[Ca^2+]cyt): mutually enhanced; concentration that could inhibit the straight growth of roots (roots): 0.3 mM; pollen germination (Arabidopsis pollen [4]; wild-type pollen, μM levels): inhibits pollen germination

— US20080058211A1, “Method and Composition for the Modulation of Toxin Resistance in Plant Cells” (BOARD OF REGENTS, THE UNIVERSITY OF TEXAS SYSTEM, priority 2006, published 2008)
